Test results published in PubChem BioAssay AID330 (DTP/NCI, 2004).
Where “and” joins values, the source holds several entries; their conditions need not be identical. Identical values can stand only once. Inconclusive results and toxic doses are left out.

Tested on: P388 leukemia ip, CD2F1 mice, survival T/C
Assay: NCI In Vivo Anticancer Drug Screen. Data for tumor model P388 Leukemia (intraperitoneal) in CD2F1 (CDF1) mice
Conditions: endpoint: median survival time, higher = longer survival
Procedure, shortened: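 Mice carrying the transplanted tumor received test compound or vehicle. Survival was recorded in each group, and the value is the treated-group measurement divided by that of the vehicle-treated control group.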

[1] = dose: 50.0 mg/kg/injection, schedule: Q01DX005 (ip), vehicle: Klucel (hydroxypropylcellulose) (HPC)
[2] = dose: 100.0 mg/kg/injection, schedule: Q01DX005 (ip), vehicle: Klucel (hydroxypropylcellulose) (HPC)
[3] = dose: 200.0 mg/kg/injection, schedule: Q01DX005 (ip), vehicle: Klucel (hydroxypropylcellulose) (HPC)
[4] = dose: 60.0 mg/kg/injection, schedule: Q01DX005 (ip), vehicle: saline with Tween-80
[5] = dose: 50.0 mg/kg/injection, schedule: Q01DX005 (ip), vehicle: saline with Tween-80
[6] = dose: 50.0 mg/kg/injection, schedule: Q01DX009 (ip), vehicle: Klucel (hydroxypropylcellulose) (HPC)
[7] = dose: 100.0 mg/kg/injection, schedule: Q01DX009 (ip), vehicle: Klucel (hydroxypropylcellulose) (HPC)
[8] = dose: 200.0 mg/kg/injection, schedule: Q01DX009 (ip), vehicle: Klucel (hydroxypropylcellulose) (HPC)
[9] = dose: 25.0 mg/kg/injection, schedule: Q01DX009 (ip), vehicle: saline with Tween-80
[10] = dose: 50.0 mg/kg/injection, schedule: Q01DX009 (ip), vehicle: saline with Tween-80
[11] = dose: 100.0 mg/kg/injection, schedule: Q01DX009 (ip), vehicle: saline with Tween-80
[12] = dose: 120.0 mg/kg/injection, schedule: Q01DX005 (ip), vehicle: saline with Tween-80
[13] = dose: 25.0 mg/kg/injection, schedule: Q01DX005 (ip), vehicle: saline
[14] = dose: 200.0 mg/kg/injection, schedule: Q01DX009 (ip), vehicle: saline with Tween-80
[15] = dose: 60.0 mg/kg/injection, schedule: Q01DX005 (ip), vehicle: Klucel (hydroxypropylcellulose) (HPC)
[16] = dose: 120.0 mg/kg/injection, schedule: Q01DX005 (ip), vehicle: Klucel (hydroxypropylcellulose) (HPC)
[17] = dose: 12.5 mg/kg/injection, schedule: Q01DX005 (ip), vehicle: saline with Tween-80
[18] = dose: 25.0 mg/kg/injection, schedule: Q01DX005 (ip), vehicle: saline with Tween-80

For `CCN1C(=O)C(=C2C=C(c3ccccc3)C(C#N)(c3ccccc3)C(c3ccccc3)=C2)C(=O)N(CC)C1=S` (stereo unspecified), the T/C [1] was 99 % of control, the T/C [2] was 97 % of control and the T/C [3] was 98 % of control.
In the case of `COC1=CC(=O)C(OC)=C(C2C(=O)N(C)c3ccccc32)C1=O` (stereo unspecified), the T/C (dose: 7.5 mg/kg/injection, schedule: Q01DX005 (ip), vehicle: saline) is reported as 111 % of control, the T/C (dose: 15.0 mg/kg/injection, schedule: Q01DX005 (ip), vehicle: saline) is reported as 121 % of control and the T/C [4] is reported as 117 % of control.
In the case of `CNC(=O)OCCC(OC(=O)NC)C1CCC2C3CCC4CCCCC4(C)C3CCC12C` (stereo unspecified), the T/C (dose: 100.0 mg/kg/injection, schedule: Q04DX002 (ip), vehicle: Klucel (hydroxypropylcellulose) (HPC)) is reported as 113 % of control, the T/C (dose: 200.0 mg/kg/injection, schedule: Q04DX002 (ip), vehicle: Klucel (hydroxypropylcellulose) (HPC)) is reported as 103 % of control and the T/C (dose: 400.0 mg/kg/injection, schedule: Q04DX002 (ip), vehicle: Klucel (hydroxypropylcellulose) (HPC)) is reported as 110 % of control.
In the case of `C=C(C)C(=O)Oc1ccccc1/C=C/C(=O)CCCCCC`, the T/C [5] is reported as 98 % of control, the T/C (dose: 100.0 mg/kg/injection, schedule: Q01DX005 (ip), vehicle: saline with Tween-80) is reported as 96 % of control and the T/C (dose: 200.0 mg/kg/injection, schedule: Q01DX005 (ip), vehicle: saline with Tween-80) is reported as 88 % of control.
In the case of `O=C(O)c1cc(-c2ccc(Cl)c(Cl)c2)nc2cc3ccccc3cc12`, the T/C [6] is reported as 110 % of control, the T/C [7] is reported as 106 % of control and the T/C [8] is reported as 95 % of control.
With `O=S(=O)(C#Cc1ccccc1)C(F)(F)F` the T/C (dose: 100.0 mg/kg/injection, schedule: Q01DX001 (ip), vehicle: saline) was 105 % of control, the T/C (dose: 200.0 mg/kg/injection, schedule: Q01DX001 (ip), vehicle: saline) was 105 % of control and the T/C (dose: 400.0 mg/kg/injection, schedule: Q01DX001 (ip), vehicle: saline) was 106 % of control.
For `O=C1CCCCC1C1=CCCCC1` (stereo unspecified), the T/C [6] was 109 % of control, the T/C [7] was 95 % of control and the T/C [8] was 100 % of control. For the same compound, the T/C (dose: 400.0 mg/kg/injection, schedule: Q01DX009 (ip), vehicle: Klucel (hydroxypropylcellulose) (HPC)) was 92 % of control.
In the case of `CC1=Nc2ccccc2NC(C)(C)C1`, the T/C (dose: 50.0 mg/kg/injection, schedule: Q01DX009 (ip), vehicle: saline) is reported as 103 % of control, the T/C (dose: 100.0 mg/kg/injection, schedule: Q01DX009 (ip), vehicle: saline) is reported as 100 % of control and the T/C (dose: 200.0 mg/kg/injection, schedule: Q01DX009 (ip), vehicle: saline) is reported as 100 % of control.
With `Cn1c([N+](=O)[O-])cnc1/C=C1/Cc2cc(OCCN3CCCCCC3)ccc2C1=O` the T/C [9] was 110 % of control, the T/C [10] was 101 % of control and the T/C [11] was 109 % of control.
`O=C1CC2COc3ccccc3C2=NN1c1ccccc1` (stereo unspecified) was tested, and the T/C [4] was 105 % of control, the T/C [12] was 94 % of control and the T/C (dose: 240.0 mg/kg/injection, schedule: Q01DX005 (ip), vehicle: saline with Tween-80) was 91 % of control.
In the case of `COc1ccc(-n2c3c(c4c(N)ncnc42)CCCC3)cc1`, the T/C [4] is reported as 105 % of control and the T/C [12] is reported as 93 % of control.
With `COc1ccc(CC(C#N)c2ccc(OC)cc2)cc1` (stereo unspecified) the T/C [6] was 111 % of control and 96 % of control, the T/C [7] was 100 % of control and 96 % of control and the T/C [8] was 99 % of control and 93 % of control.
With `c1ccc(-c2cc3ccc4cccnc4c3o2)cc1` the T/C (dose: 100.0 mg/kg/injection, schedule: Q04DX002 (ip), vehicle: saline with Tween-80) was 91 % of control, the T/C (dose: 200.0 mg/kg/injection, schedule: Q04DX002 (ip), vehicle: saline with Tween-80) was 87 % of control and the T/C (dose: 400.0 mg/kg/injection, schedule: Q04DX002 (ip), vehicle: saline with Tween-80) was 103 % of control.
For `NC(=S)N/N=C/c1cccc(CC(O)(C(F)(F)F)C(F)(F)F)n1`, the T/C (dose: 12.5 mg/kg/injection, schedule: Q04DX003 (ip), vehicle: saline with Tween-80) was 100 % of control and the T/C (dose: 25.0 mg/kg/injection, schedule: Q04DX003 (ip), vehicle: saline with Tween-80) was 87 % of control.
With `NCCN.NCCN.NCCN.[Cl-].[Pt]` the T/C (dose: 1.56 mg/kg/injection, schedule: Q01DX009 (ip), vehicle: saline) was 101 % of control, the T/C (dose: 3.13 mg/kg/injection, schedule: Q01DX009 (ip), vehicle: saline) was 101 % of control and the T/C (dose: 6.25 mg/kg/injection, schedule: Q01DX009 (ip), vehicle: saline) was 107 % of control. For the same compound, the T/C (dose: 12.5 mg/kg/injection, schedule: Q01DX009 (ip), vehicle: saline) was 99 % of control.
For `COc1ccc2c3c([nH]c2c1)[C@H]1C[C@H]2[C@H](C[C@@H](O)[C@H](OC)[C@H]2CO)CN1CC3`, the T/C [1] was 104 % of control, the T/C [2] was 95 % of control and the T/C [3] was 90 % of control.
For `N=C1CCCS1`, the T/C [13] was 115 % of control and the T/C (dose: 100.0 mg/kg/injection, schedule: Q01DX005 (ip), vehicle: saline) was 150 % of control.
For `COc1ccc2c(c1O)-c1cccc3c1[C@@H](C2)N(CCCl)CC3`, the T/C (dose: 1.0 mg/kg/injection, schedule: Q01DX009 (ip), vehicle: Klucel (hydroxypropylcellulose) (HPC)) was 101 % of control and 105 % of control, the T/C (dose: 2.0 mg/kg/injection, schedule: Q01DX009 (ip), vehicle: Klucel (hydroxypropylcellulose) (HPC)) was 99 % of control and 101 % of control and the T/C (dose: 4.0 mg/kg/injection, schedule: Q01DX009 (ip), vehicle: Klucel (hydroxypropylcellulose) (HPC)) was 106 % of control and 113 % of control. The T/C (dose: 4.0 mg/kg/injection, schedule: Q01DX009 (ip), vehicle: saline) was 151 % of control, the T/C (dose: 6.25 mg/kg/injection, schedule: Q04DX003 (ip), vehicle: other) was 104 % of control and 118 % of control and the T/C (dose: 8.0 mg/kg/injection, schedule: Q01DX009 (ip), vehicle: Klucel (hydroxypropylcellulose) (HPC)) was 106 % of control. For the same compound, the T/C (dose: 8.0 mg/kg/injection, schedule: Q01DX009 (ip), vehicle: saline) was 114 % of control and 120 % of control, the T/C (dose: 12.5 mg/kg/injection, schedule: Q04DX003 (ip), vehicle: other) was 90 % of control and the T/C (dose: 25.0 mg/kg/injection, schedule: Q04DX003 (ip), vehicle: other) was 116 % of control.
With `ClCSc1nc2cc(Cl)ccc2s1` the T/C [10] was 95 % of control, the T/C [11] was 100 % of control and the T/C [14] was 95 % of control.
In the case of `CCCCC(C)C(=O)/C=C/c1ccc(Cl)c(Cl)c1` (stereo unspecified), the T/C [10] is reported as 105 % of control, the T/C [11] is reported as 100 % of control and the T/C [14] is reported as 106 % of control.
`C1CCC2(CC1)CSSC2` was tested, and the T/C (dose: 6.25 mg/kg/injection, schedule: Q04DX002 (ip), vehicle: saline with Tween-80) was 101 % of control and the T/C (dose: 12.5 mg/kg/injection, schedule: Q04DX002 (ip), vehicle: saline with Tween-80) was 99 % of control.
For `C[n+]1cccc(SC2CCC3CC4CC3C2C4)c1` (stereo unspecified), the T/C (dose: 12.5 mg/kg/injection, schedule: Q01DX009 (ip), vehicle: saline with Tween-80) was 113 % of control and the T/C [9] was 102 % of control.
In the case of `O=c1oc2ccccc2c2c1SC(c1ccncc1)C2` (stereo unspecified), the T/C [15] is reported as 91 % of control, the T/C [16] is reported as 88 % of control and the T/C (dose: 240.0 mg/kg/injection, schedule: Q01DX005 (ip), vehicle: Klucel (hydroxypropylcellulose) (HPC)) is reported as 91 % of control.
With `Fc1ccc2cc3cccc[n+]3cc2c1` the T/C (dose: 6.25 mg/kg/injection, schedule: Q01DX005 (ip), vehicle: saline with Tween-80) was 100 % of control, the T/C [17] was 99 % of control and the T/C [18] was 99 % of control.
`OC(CCC(O)(C(F)(F)F)C(F)(F)F)(C(F)(F)F)C(F)(F)F` was tested, and the T/C (dose: 6.25 mg/kg/injection, schedule: Q01DX005 (ip), vehicle: saline) was 99 % of control, the T/C (dose: 12.5 mg/kg/injection, schedule: Q01DX005 (ip), vehicle: saline) was 101 % of control and the T/C [13] was 100 % of control. The T/C [5] was 103 % of control.
`O=C(CNC(=O)c1ccc(Cl)cc1)c1ccc(Br)cc1` was tested, and the T/C [17] was 94 % of control, the T/C [18] was 92 % of control and the T/C [5] was 92 % of control.
For `O=C1c2ccccc2C(=O)c2cc3c(cc21)OCO3`, the T/C [15] was 88 % of control and the T/C [16] was 89 % of control.
For `C[N+](C)(CCCCCCOc1c(Br)cc(Br)cc1Br)Cc1ccc(Br)o1`, the T/C (dose: 1.56 mg/kg/injection, schedule: Q01DX009 (ip), vehicle: Klucel (hydroxypropylcellulose) (HPC)) was 104 % of control, the T/C (dose: 3.12 mg/kg/injection, schedule: Q01DX009 (ip), vehicle: Klucel (hydroxypropylcellulose) (HPC)) was 113 % of control and the T/C (dose: 6.25 mg/kg/injection, schedule: Q01DX009 (ip), vehicle: Klucel (hydroxypropylcellulose) (HPC)) was 93 % of control.
With `Nc1c(Cl)cc(C(=O)NC2CC2)cc1Cl` the T/C [9] was 94 % of control and 95 % of control, the T/C [10] was 100 % of control and 88 % of control and the T/C [11] was 102 % of control and 113 % of control. For the same compound, the T/C [14] was 109 % of control and 89 % of control.
